ChEMBL document CHEMBL1201862, “PubChem BioAssay data set” (2004)
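All cell lines were grown in 96-well plates and treated with compound for 48 hours. GI50 = concentration required for 50% inhibition of growth.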 Activity calls are given as the source filed them. No stated cut-off is given here; in the data, active = GI50 up to about 1.1 µM and inactive = higher.

Experiments:
Experiment in all cases: inhibition of tumour cell growth, NCI panel, 48 h
[1] = tested on: LOX IMVI
[2] = tested on: HL-60
[3] = tested on: SF-295
[4] = tested on: HCT-15
[5] = tested on: UACC-257
[6] = tested on: HCT-116
[7] = tested on: SNB-19
[8] = tested on: IGROV-1
[9] = tested on: NCI-H23
[10] = tested on: HOP-62
[11] = tested on: SK-OV-3
[12] = tested on: M19-MEL
[13] = tested on: COLO 205
[14] = tested on: CCRF-CEM
[15] = tested on: SK-MEL-2
[16] = tested on: MCF7
[17] = tested on: UO-31
[18] = tested on: SF-268
[19] = tested on: A549
[20] = tested on: DMS-114
[21] = tested on: KM12
[22] = tested on: HOP-92
[23] = tested on: U-251
[24] = tested on: HOP-18
[25] = tested on: SK-MEL-28
[26] = tested on: NCI-H522
[27] = tested on: NCI-H460
[28] = tested on: DLD-1
[29] = tested on: SN12C
[30] = tested on: MOLT-4
[31] = tested on: Malme-3M
[32] = tested on: EKVX
[33] = tested on: NCI/ADR-RES
[34] = tested on: XF498
[35] = tested on: SNB-75
[36] = tested on: KM-20L2
[37] = tested on: OVCAR-5
[38] = tested on: SW-620
[39] = tested on: SF-539
[40] = tested on: OVCAR-3
[41] = tested on: OVCAR-8
[42] = tested on: K562
[43] = tested on: SK-MEL-5
[44] = tested on: UACC-62
[45] = tested on: SNB-78
[46] = tested on: DMS-273
[47] = tested on: CAKI-1
[48] = tested on: OVCAR-4
[49] = tested on: NCI-H226
[50] = tested on: A498
[51] = tested on: HT-29
[52] = tested on: HCC 2998
[53] = tested on: RXF 393
[54] = tested on: RPMI-8226

## Cc1c(N=NN(C)C)cc[n+]([O-])c1C
[1]
  GI50: > 100 µM (inactive)
[2]
  GI50: > 100 µM (inactive)
[3]
  GI50: > 100 µM (inactive)
[4]
  GI50: > 100 µM
[5]
  GI50: > 100 µM (inactive)
[6]
  GI50: > 100 µM (inactive)
[7]
  GI50: > 100 µM (inactive)
[8]
  GI50: > 100 µM (inactive)
[9]
  GI50: > 100 µM (inactive)
[10]
  GI50: > 100 µM (inactive)
[11]
  GI50: > 100 µM (inactive)
[12]
  GI50: > 100 µM (inactive)
[13]
  GI50: > 100 µM (inactive)
[14]
  GI50: > 100 µM (inactive)
[15]
  GI50: > 100 µM (inactive)
[16]
  GI50: > 100 µM (inactive)
[17]
  GI50: > 100 µM (inactive)
[18]
  GI50: > 100 µM (inactive)
[19]
  GI50: > 100 µM (inactive)
[20]
  GI50: > 100 µM (inactive)
[21]
  GI50: > 100 µM (inactive)
[22]
  GI50: > 100 µM (inactive)
[23]
  GI50: > 100 µM (inactive)
[24]
  GI50: > 100 µM (inactive)
[25]
  GI50: > 100 µM (inactive)
[26]
  GI50: > 100 µM (inactive)
[27]
  GI50: > 100 µM (inactive)
[28]
  GI50: > 100 µM (inactive)
[29]
  GI50: > 100 µM (inactive)
[30]
  GI50: > 100 µM (inactive)
[31]
  GI50: > 100 µM (inactive)
[32]
  GI50: > 100 µM (inactive)
[33]
  GI50: > 100 µM (inactive)
[34]
  GI50: > 100 µM (inactive)
[35]
  GI50: > 49.7 µM (inactive)
[36]
  GI50: > 100 µM (inactive)
[37]
  GI50: > 100 µM (inactive)
[38]
  GI50: > 100 µM (inactive)
[39]
  GI50: > 100 µM (inactive)
[40]
  GI50: > 100 µM (inactive)
[41]
  GI50: > 100 µM (inactive)
[42]
  GI50: > 100 µM (inactive)
[43]
  GI50: > 100 µM (inactive)
[44]
  GI50: > 100 µM (inactive)
[45]
  GI50: > 100 µM (inactive)
[46]
  GI50: > 100 µM (inactive)
[47]
  GI50: > 100 µM (inactive)
[48]
  GI50: > 100 µM (inactive)
[49]
  GI50: > 100 µM (inactive)
[50]
  GI50: > 100 µM (inactive)
[51]
  GI50: > 100 µM (inactive)
[52]
  GI50: > 100 µM (inactive)
[53]
  GI50: > 100 µM (inactive)
[54]
  GI50: > 100 µM (inactive)
